In experiment [1] the target is T1, KATP channels from C57BL/6J β-cells (Mus musculus, UniProt Q61743).
T1 construct: inside-out patches excised from a C57BL/6J or CH3/HeH β-cell; endogenous in cells; host or cells: primary pancreatic β-cells isolated from C57BL/6J and C3H/HeH mice
As to the kind of experiment: ATP sensitivity of KATP channels in inside-out patches. The class given is biochemical. Here is the method: The ATP sensitivity of KATP channels was measured at −60 mV in inside-out patches. Currents were digitized at 5 kHz and filtered at 2 kHz. The pipette (extracellular) contained (mmol/l): 140 KCl, 2.6 CaCl2, 1.2 MgCl2, 10 HEPES (pH 7.4 with KOH). The bath (intracellular) solution contained (mmol/l): 107 KCl, 1 MgCl2, 1 CaCl2, 10 HEPES (pH 7.2 with KOH), and K2ATP as indicated.
Concentration-response relations were obtained by alternating test solutions with control (glucose- or ATP-free) solution. The control conductance was taken as the mean of that obtained in control solution before and after application of the test agent. The current in the presence of glucose or nucleotide (I) is plotted as a fraction of that obtained in control solution (IC). Data were fit with the Hill equation: I/IC=1/(1+([X]/IC50)h) where [X] is the concentration of glucose or ATP, IC50 is the concentration giving half-maximal inhibition of the current and h is the Hill coefficient. Data are given as mean±one S.E.M.

In experiment [2] the test system is isolated wild-type islets. Briefly: Glucose utilization in isolated pancreatic islets. Format: cell-based, mouse. The following applies: H2O2, 20 mM glucose. Here is the method:
FIG. 19: Glucose utilization in pancreatic islets isolated wild-type and homozygous NNT mutant mice (G745D). Each data point is the mean of 6 replicates each of 5 islets. Glucose utilization was measured as described in Ashcroft S J H, Weerasinghe L C C, Bassett J M, Randle P J: The pentose cycle and insulin release in mouse pancreatic islets. Biochem J (1972) 126, 525-532. Briefly, And these islets were placed in 20 microlitres of medium containing [3H]glucose and various concentrations of unlabelled glucose (as indicated). The tubes were placed in outer vials containing 0.5 ml of water. After 2-hours of incubation, metabolism was terminated by applying 5 microlitres of HCl. Then these samples were incubated for more than 18-24 hours to allow [3H]water in the incubation tube to equilibrate with the water in outer vial. Then, radioactivity of the water in the outer vial was measured. Control samples without islets were used to correct for background counts.
FIG. 20: Effect of H2O2 on glucose utilization in isolated wild-type islets. Each data point is the mean of 6 replicates each of 5 islets.

For the next experiment, the system named is rodent islets. The following applies: cited from earlier work.
Experiment [3] concerns MIN6 cells. As to the kind of experiment: Insulin secretion from MIN6 cells. Format: cell-based. To be noted: for insulin secretory response: 1 mM glutathione for 4 hours, Nnt siRNA transfected cells; for insulin secretion: tolbutamide 200 μM.
Experiment [4] deals with MIN6 cells. As to the kind of experiment: Fura-2 calcium imaging in MIN6 cells. Format: cell-based. The following applies: for calcium response to glucose: 1 mM glutathione for 4 hours, Nnt siRNA transfected cells. As for the experimental part:
(§1) MIN6 cells were cultured on 35mm Fluorodishes (World Precision Instruments) and incubated with 3 μM Fura-2-AM (Molecular Probes) for 40 min at 37° C. They were imaged at room temperature (20-24° C.) using an IonOptix fluorescence system (Boston, Mass.), with 340 nm and 380 nm dual excitation. The 510 nm emission ratio was collected at 1 Hz. Background subtraction was performed by measuring fluorescence from a cell-free region in the field of view. Cells were perfused continuously with extracellular solution containing (mM): 137 NaCl, 5.6 KCl, 2.6 CaCl2, 1.2 MgCl2, 10 HEPES (pH 7.4 with NaOH) plus glucose or tolbutamide as indicated.

Experiment [5] relates to type-2 diabetic human islets. The following applies: cited from earlier work.
Experiment [6] concerns human and rodent pancreatic islets. The following applies: preincubation in 15 μM metformin; cited from earlier work.
In experiment [7] the test system is isolated pancreatic islets. As to the kind of experiment: Insulin secretion from isolated pancreatic islets.
In experiment [8] the test system is β-cells isolated from C57BL/6J and C3H/HeH mice. Briefly: Fura-2 imaging of intracellular calcium in isolated β-cells. Format: cell-based, mouse. To be noted: 500 μmol/l tolbutamide; C57BL/6J and C3H/HeH β-cells. As for the experimental part: as §1, with “Islet” for “MIN6”, “35 mm” for “35mm”, “Instruments, Stevenage, UK)” for “Instruments)”, “Probes, Paisley, UK)” for “Probes)”, “(as in perforated-patch experiments),” for “containing (mM): 137 NaCl, 5.6 KCl, 2.6 CaCl2, 1.2 MgCl2, 10 HEPES (pH 7.4 with NaOH)”, “indicated. Only data from cells that responded to 500 μmol/l tolbutamide were analysed.” for “indicated.”
A general note: A change in cytosolic calcium serves as a functional read-out for many receptors and channels.

T1 sequence (Q61743 whole entry): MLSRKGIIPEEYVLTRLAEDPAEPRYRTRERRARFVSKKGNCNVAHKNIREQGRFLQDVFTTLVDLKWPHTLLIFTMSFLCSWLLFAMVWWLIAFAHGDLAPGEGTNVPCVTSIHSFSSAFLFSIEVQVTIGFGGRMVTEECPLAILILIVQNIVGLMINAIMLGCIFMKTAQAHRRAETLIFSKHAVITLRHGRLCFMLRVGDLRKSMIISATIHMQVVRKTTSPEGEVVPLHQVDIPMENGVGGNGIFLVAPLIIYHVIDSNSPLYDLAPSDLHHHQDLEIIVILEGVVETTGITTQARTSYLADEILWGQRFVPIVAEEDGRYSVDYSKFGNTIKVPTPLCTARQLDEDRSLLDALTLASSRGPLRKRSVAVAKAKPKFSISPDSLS
T1 sequence (B2RUS7 1-1588 partner): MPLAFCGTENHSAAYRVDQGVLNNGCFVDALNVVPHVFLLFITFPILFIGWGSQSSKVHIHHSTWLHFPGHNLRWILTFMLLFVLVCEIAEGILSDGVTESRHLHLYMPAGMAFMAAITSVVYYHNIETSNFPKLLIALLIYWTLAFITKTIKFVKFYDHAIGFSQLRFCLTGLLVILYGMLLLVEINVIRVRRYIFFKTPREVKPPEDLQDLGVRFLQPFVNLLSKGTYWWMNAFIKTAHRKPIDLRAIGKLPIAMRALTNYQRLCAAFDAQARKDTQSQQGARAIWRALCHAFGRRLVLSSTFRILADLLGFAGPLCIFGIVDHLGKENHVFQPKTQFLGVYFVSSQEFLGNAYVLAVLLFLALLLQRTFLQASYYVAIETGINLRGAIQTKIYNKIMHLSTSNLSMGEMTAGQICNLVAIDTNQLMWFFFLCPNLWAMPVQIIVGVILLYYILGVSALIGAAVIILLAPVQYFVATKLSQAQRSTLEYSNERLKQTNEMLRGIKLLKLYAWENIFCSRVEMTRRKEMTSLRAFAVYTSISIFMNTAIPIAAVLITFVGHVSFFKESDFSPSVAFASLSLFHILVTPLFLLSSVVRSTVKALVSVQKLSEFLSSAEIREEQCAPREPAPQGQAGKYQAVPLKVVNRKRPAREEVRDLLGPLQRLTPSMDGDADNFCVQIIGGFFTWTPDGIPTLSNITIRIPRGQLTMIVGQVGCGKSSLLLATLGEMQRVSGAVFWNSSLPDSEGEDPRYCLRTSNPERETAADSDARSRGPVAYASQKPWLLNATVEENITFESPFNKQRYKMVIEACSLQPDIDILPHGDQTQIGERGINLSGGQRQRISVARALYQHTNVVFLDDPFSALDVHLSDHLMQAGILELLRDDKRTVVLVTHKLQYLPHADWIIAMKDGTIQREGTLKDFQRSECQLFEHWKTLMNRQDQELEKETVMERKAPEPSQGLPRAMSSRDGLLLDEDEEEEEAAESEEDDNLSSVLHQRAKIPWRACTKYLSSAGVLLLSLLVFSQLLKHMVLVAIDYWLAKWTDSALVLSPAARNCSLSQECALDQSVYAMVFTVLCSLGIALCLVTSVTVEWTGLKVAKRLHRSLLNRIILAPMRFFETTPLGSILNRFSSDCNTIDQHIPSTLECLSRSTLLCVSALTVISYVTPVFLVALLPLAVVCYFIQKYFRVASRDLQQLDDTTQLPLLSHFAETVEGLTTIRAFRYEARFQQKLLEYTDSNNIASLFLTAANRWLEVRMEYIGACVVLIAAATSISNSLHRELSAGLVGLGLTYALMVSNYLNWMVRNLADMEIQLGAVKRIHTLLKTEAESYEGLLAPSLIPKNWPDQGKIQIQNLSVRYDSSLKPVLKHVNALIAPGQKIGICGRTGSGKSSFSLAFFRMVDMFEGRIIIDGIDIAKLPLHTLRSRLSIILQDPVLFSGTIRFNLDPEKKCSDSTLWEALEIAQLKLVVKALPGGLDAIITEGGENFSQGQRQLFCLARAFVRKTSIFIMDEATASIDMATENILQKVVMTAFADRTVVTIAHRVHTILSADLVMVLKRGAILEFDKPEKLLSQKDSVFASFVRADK

Turning to `Nc1ncnc2c1ncn2[C@@H]1O[C@H](COP(=O)(O)OP(=O)(O)OP(=O)(O)O)[C@@H](O)[C@H]1O` [ATP], the “Hill coefficient h, ATP on KATP channel activity” value in experiment [1] (inside-out patches, n=5) is recorded as 0.89±0.06. Moreover, the IC50 in experiment [1] (read-out: half-maximal inhibition of C57BL/6J KATP channels by ATP (IC50)) is 10 µM.

Regarding `OO` [H2O2], the glucose utilization entry in experiment [2] is on record as “significantly increases glucose utilization”. The insulin secretion entry in the experiment with rodent islets (H2O2, rodent β-cells) is “inhibits insulin secretion”.

Take `N[C@@H](CCC(=O)N[C@@H](CS)C(=O)NCC(=O)O)C(=O)O` [glutathione]: the insulin secretory response result was “partially reversed the impaired calcium and insulin secretory responses” with MIN6 cells [3]; “partially restores the insulin secretory response” with MIN6 cells [3] (listed as Glutathione). In addition, the “calcium response to glucose” value with MIN6 cells [4] is “partially reversed the impaired calcium”; with MIN6 cells [4] (listed as Glutathione) it was “partially restores the calcium response”. Further, in experiment [5] (24-hour culture with 30 μM glutathione), the “secretory response to glucose” value was “improved significantly”.

As for `CN(C)C(=N)N=C(N)N` [metformin], the “protection from deleterious effects of elevated lipids” value in [6] was “protects human and rodent pancreatic islets from the deleterious effects of elevated lipids”. For the same compound, the glucose-stimulated insulin secretion entry in experiment [7] (Nnt-G745D islets, 24-hour preincubation in 15 μM metformin) is listed as “restored glucose-stimulated insulin secretion in pancreatic islets from the Nnt-G745D mutant mouse”; in experiment [7] (Nnt-G745D islets, 24-hour preincubation in 15 μM metformin, listed as Metformin), “restores insulin secretion in Nnt mouse pancreatic islets”; in experiment [7] (WT islets, 24-hour preincubation in 15 μM metformin) it was “little effect on wild-type (WT) pancreatic islets”; in experiment [7] (acute exposure to metformin) it was “without effect”; in the experiment with rodent islets (incubation at 1 mM metformin) it was “reduces glucose-stimulated insulin secretion”. Also, in [5] (preincubation in 15 μM metformin), the insulin secretion result is on record as “partially restores insulin secretion in type-2 diabetic human islets”.

For `CCCCNC(=O)NS(=O)(=O)c1ccc(C)cc1` [tolbutamide], the insulin secretion result in the experiment with MIN6 cells [3] (nonsense vs Nnt siRNA transfected cells) was “elicited equivalent responses in both nonsense and Nnt siRNA transfected cells”; with MIN6 cells [3] (nonsense, Nnt, UCP2, UCP2/Nnt or Gck siRNA transfected cells), “stimulated a calcium response and insulin secretion”; in [7] (tolbutamide, B6-TG vs B6-TG negative islets), “stimulated secretion comparably in both strains”. Also, in experiment [8], the “change in [Ca2+]i” value is “rise in [Ca2+]i”. For the same compound, the “increase in [Ca]i” value in the experiment on MIN6 cells [4] (tolbutamide 200 μM, nonsense vs Nnt siRNA transfected cells) is “stimulated a similar increase in [Ca]i in both cells transfected with nonsense and Nnt siRNA”. In addition, in the experiment with MIN6 cells [4] (tolbutamide 200 μM, nonsense, Nnt, UCP2 or UCP2+Nnt siRNA transfected cells), the calcium response entry is given as “stimulated a calcium response”.

The record behind these values is patent US20070224648A1, “Methods and compositions for the diagnosis of treatment of type 2 diabetes” (The Chancellor, Masters and Scholars of the University of …, priority 2005, published 2007).
